Columns and labels:
Design in all cases: scale not given: the % may be the effect or the level left
[1] = molecular target: Ribosomal protein S6 kinase alpha-3 (Homo sapiens) (UniProt P51812); assay: Inhibition of human MAPKAPK1beta assessed as enzyme activity at 1 uM using 33P ATP by radioactive filter binding assay
[2] = molecular target: MAP kinase-interacting serine/threonine-protein kinase 2 (Homo sapiens) (UniProt Q9HBH9); assay: Inhibition of human MNK2alpha (2 to 465 residues) assessed as enzyme activity at 1 uM using 33P ATP by radioactive filter binding assay
[3] = molecular target: T1, Serine/threonine-protein kinase Nek2 (Homo sapiens) (UniProt P51955); assay: Inhibition of human NEK2A (1 to 445 residues) assessed as enzyme activity at 1 uM using 33P ATP by radioactive filter binding assay
T1 sequence (whole entry): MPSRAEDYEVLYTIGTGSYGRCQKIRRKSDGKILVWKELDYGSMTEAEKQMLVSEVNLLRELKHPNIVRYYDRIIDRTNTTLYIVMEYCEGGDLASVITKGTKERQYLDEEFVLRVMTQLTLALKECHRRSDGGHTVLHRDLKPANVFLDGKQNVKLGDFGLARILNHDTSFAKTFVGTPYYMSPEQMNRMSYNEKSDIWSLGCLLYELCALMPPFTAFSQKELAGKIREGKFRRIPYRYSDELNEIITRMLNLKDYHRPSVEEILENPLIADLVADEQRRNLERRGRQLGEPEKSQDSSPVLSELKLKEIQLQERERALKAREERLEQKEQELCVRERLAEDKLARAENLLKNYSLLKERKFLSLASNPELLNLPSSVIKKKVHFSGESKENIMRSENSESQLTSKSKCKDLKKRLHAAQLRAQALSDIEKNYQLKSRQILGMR

[4] = molecular target: Serine/threonine-protein kinase PAK 4 (Homo sapiens) (UniProt O96013); assay: Inhibition of human PAK4 (2 to 591 residues) assessed as enzyme activity at 1 uM using 33P ATP by radioactive filter binding assay
[5] = molecular target: Serine/threonine-protein kinase pim-3 (Homo sapiens) (UniProt Q86V86); assay: Inhibition of human PIM3 (2 to 326 residues) assessed as enzyme activity at 1 uM using 33P ATP by radioactive filter binding assay
[6] = molecular target: T2, Serine/threonine-protein kinase Sgk1 (Homo sapiens) (UniProt O00141); assay: Inhibition of human SGK assessed as enzyme activity at 1 uM using 33P ATP by radioactive filter binding assay
T2 sequence (whole entry): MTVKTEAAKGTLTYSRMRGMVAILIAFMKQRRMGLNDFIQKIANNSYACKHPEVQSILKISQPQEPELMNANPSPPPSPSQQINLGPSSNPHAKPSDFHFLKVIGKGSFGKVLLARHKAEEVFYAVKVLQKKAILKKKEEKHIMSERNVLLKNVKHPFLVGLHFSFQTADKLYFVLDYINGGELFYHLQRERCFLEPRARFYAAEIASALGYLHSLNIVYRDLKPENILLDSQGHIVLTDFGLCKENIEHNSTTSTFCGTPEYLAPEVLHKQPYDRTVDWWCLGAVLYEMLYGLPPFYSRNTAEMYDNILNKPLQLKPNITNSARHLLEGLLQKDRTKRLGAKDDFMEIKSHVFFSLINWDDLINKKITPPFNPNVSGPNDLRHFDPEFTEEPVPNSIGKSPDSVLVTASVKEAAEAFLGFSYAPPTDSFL

[7] = molecular target: Myosin light chain kinase, smooth muscle (Homo sapiens) (UniProt Q15746); assay: Inhibition of human smMLCK (475 to 838 residues) assessed as enzyme activity at 1 uM using 33P ATP by radioactive filter binding assay
[8] = molecular target: Proto-oncogene tyrosine-protein kinase Src (Homo sapiens) (UniProt P12931); assay: Inhibition of human SRC (1 to 536 residues) assessed as enzyme activity at 1 uM using 33P ATP by radioactive filter binding assay
[9] = molecular target: Vascular endothelial growth factor receptor (Homo sapiens) (UniProt P17948+P35916+P35968); assay: Inhibition of human VEGFR assessed as enzyme activity at 1 uM using 33P ATP by radioactive filter binding assay; type: protein assay
[10] = molecular target: Tyrosine-protein kinase CSK (Homo sapiens) (UniProt P41240); assay: Inhibition of human CSK (1 to 450 residues) assessed as enzyme activity at 1 uM using 33P ATP by radioactive filter binding assay
[11] = molecular target: Ephrin type-A receptor 2 (Homo sapiens) (UniProt P29317); assay: Inhibition of human EPHA2 (591 to 976 residues) assessed as enzyme activity at 1 uM using 33P ATP by radioactive filter binding assay
[12] = molecular target: T3, Ephrin type-B receptor 3 (Homo sapiens) (UniProt P54753); assay: Inhibition of human EPHB3 (561 to 998 residues) assessed as enzyme activity at 1 uM using 33P ATP by radioactive filter binding assay
T3 sequence (whole entry): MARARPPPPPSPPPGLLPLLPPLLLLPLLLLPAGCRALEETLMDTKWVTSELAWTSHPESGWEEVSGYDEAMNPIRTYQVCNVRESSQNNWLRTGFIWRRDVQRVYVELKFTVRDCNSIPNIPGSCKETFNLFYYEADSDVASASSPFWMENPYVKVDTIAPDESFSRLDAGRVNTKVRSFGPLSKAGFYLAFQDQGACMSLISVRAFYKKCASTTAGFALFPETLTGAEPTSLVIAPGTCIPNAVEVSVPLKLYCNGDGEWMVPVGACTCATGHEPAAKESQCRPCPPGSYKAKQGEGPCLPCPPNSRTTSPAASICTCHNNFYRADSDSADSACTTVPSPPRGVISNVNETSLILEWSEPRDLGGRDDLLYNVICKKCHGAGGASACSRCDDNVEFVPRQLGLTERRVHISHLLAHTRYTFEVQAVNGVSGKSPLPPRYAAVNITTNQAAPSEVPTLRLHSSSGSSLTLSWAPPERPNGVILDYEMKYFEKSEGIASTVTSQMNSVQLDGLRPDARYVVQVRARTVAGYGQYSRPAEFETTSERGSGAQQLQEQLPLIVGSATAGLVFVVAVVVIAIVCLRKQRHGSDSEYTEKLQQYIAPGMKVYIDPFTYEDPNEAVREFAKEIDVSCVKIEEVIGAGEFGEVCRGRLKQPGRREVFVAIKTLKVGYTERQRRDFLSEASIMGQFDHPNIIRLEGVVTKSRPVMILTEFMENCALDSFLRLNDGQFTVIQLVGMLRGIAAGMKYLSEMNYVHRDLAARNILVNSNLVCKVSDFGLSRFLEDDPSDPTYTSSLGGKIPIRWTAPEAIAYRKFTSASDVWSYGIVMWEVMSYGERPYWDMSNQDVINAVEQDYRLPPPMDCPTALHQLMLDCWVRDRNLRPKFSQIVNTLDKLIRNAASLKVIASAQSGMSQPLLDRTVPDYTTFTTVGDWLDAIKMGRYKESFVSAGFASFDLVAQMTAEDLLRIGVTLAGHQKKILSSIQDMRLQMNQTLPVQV

[13] = molecular target: Tyrosine-protein kinase SYK (Homo sapiens) (UniProt P43405); assay: Inhibition of human SYK (1 to 635 residues) assessed as enzyme activity at 1 uM using 33P ATP by radioactive filter binding assay

Chain of Serine/threonine-protein kinase PAK 4 (Homo sapiens) (O96013 whole entry, looked up, the tested form may be a part): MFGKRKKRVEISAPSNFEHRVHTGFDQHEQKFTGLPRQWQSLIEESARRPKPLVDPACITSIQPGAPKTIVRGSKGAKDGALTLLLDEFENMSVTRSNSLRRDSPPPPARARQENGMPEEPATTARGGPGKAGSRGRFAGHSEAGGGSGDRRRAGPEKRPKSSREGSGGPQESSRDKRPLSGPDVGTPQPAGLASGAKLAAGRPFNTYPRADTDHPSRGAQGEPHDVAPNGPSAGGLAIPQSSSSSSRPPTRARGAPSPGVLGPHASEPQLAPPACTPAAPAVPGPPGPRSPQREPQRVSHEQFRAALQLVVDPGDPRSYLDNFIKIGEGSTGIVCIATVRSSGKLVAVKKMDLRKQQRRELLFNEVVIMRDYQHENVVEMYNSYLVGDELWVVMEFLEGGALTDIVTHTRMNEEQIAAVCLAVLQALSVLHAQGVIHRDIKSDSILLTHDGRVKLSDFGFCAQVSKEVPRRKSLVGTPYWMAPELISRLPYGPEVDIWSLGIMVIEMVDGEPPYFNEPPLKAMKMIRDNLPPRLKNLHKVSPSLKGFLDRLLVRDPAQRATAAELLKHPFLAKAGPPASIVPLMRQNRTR
Chain of Tyrosine-protein kinase CSK (Homo sapiens) (P41240 2-450 limits assumed): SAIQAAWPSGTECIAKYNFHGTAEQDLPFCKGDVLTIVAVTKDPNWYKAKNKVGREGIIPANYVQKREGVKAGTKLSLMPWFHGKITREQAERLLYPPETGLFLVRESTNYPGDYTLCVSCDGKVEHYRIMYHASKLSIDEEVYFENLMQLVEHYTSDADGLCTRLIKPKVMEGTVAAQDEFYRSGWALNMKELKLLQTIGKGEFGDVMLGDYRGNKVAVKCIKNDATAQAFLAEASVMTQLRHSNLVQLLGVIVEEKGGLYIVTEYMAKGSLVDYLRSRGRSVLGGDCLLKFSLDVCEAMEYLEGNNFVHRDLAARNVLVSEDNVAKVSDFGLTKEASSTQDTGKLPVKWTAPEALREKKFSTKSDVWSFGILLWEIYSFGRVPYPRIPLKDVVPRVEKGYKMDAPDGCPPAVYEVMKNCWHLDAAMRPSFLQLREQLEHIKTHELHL
Chain of Ephrin type-A receptor 2 (Homo sapiens) (P29317 whole entry, the tested form may be a part): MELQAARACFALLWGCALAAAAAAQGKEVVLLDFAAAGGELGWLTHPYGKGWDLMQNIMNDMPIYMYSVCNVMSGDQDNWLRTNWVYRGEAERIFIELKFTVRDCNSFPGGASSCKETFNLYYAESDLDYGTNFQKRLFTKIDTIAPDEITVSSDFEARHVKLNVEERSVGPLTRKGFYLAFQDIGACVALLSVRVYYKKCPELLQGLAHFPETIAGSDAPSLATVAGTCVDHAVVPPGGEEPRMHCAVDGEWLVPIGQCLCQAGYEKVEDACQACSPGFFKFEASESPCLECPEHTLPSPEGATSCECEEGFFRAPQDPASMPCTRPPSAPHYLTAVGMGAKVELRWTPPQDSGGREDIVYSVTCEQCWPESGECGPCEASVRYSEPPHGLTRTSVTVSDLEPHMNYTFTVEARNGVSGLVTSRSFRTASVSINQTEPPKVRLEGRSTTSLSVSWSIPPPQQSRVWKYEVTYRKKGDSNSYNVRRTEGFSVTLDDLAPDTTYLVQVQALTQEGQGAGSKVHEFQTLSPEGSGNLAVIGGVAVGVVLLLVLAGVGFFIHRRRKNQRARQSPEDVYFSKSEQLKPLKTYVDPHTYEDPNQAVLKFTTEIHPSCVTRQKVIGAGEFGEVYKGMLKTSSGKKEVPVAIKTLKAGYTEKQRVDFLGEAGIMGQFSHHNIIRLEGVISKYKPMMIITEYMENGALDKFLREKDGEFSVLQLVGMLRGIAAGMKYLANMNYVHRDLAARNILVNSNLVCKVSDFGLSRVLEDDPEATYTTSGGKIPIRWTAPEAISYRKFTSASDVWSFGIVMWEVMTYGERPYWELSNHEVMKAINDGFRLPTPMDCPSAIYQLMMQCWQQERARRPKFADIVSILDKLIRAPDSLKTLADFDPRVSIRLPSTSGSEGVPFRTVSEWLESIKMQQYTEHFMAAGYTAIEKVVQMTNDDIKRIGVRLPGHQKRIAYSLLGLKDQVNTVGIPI
Chain of Ribosomal protein S6 kinase alpha-3 (Homo sapiens) (P51812 whole entry, the tested form may be a part): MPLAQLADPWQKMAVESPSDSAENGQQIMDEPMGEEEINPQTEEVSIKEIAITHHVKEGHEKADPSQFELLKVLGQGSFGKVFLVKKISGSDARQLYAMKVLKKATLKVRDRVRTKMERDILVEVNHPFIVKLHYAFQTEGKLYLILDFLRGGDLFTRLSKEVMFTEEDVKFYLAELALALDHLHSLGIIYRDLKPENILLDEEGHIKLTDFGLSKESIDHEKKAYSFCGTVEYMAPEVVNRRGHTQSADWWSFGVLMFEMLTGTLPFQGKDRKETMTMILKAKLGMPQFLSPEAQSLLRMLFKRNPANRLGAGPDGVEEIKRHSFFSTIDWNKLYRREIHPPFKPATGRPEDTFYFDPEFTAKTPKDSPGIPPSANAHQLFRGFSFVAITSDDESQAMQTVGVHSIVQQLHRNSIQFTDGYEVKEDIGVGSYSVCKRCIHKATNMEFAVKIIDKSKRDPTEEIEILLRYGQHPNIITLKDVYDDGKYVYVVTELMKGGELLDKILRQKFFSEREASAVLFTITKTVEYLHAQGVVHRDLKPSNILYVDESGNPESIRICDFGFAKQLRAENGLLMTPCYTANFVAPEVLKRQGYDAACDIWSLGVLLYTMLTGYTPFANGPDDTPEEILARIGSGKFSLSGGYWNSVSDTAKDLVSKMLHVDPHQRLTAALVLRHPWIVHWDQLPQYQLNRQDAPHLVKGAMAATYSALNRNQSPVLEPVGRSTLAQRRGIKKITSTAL
Chain of Myosin light chain kinase, smooth muscle (Homo sapiens) (Q15746 whole entry, the tested form may be a part): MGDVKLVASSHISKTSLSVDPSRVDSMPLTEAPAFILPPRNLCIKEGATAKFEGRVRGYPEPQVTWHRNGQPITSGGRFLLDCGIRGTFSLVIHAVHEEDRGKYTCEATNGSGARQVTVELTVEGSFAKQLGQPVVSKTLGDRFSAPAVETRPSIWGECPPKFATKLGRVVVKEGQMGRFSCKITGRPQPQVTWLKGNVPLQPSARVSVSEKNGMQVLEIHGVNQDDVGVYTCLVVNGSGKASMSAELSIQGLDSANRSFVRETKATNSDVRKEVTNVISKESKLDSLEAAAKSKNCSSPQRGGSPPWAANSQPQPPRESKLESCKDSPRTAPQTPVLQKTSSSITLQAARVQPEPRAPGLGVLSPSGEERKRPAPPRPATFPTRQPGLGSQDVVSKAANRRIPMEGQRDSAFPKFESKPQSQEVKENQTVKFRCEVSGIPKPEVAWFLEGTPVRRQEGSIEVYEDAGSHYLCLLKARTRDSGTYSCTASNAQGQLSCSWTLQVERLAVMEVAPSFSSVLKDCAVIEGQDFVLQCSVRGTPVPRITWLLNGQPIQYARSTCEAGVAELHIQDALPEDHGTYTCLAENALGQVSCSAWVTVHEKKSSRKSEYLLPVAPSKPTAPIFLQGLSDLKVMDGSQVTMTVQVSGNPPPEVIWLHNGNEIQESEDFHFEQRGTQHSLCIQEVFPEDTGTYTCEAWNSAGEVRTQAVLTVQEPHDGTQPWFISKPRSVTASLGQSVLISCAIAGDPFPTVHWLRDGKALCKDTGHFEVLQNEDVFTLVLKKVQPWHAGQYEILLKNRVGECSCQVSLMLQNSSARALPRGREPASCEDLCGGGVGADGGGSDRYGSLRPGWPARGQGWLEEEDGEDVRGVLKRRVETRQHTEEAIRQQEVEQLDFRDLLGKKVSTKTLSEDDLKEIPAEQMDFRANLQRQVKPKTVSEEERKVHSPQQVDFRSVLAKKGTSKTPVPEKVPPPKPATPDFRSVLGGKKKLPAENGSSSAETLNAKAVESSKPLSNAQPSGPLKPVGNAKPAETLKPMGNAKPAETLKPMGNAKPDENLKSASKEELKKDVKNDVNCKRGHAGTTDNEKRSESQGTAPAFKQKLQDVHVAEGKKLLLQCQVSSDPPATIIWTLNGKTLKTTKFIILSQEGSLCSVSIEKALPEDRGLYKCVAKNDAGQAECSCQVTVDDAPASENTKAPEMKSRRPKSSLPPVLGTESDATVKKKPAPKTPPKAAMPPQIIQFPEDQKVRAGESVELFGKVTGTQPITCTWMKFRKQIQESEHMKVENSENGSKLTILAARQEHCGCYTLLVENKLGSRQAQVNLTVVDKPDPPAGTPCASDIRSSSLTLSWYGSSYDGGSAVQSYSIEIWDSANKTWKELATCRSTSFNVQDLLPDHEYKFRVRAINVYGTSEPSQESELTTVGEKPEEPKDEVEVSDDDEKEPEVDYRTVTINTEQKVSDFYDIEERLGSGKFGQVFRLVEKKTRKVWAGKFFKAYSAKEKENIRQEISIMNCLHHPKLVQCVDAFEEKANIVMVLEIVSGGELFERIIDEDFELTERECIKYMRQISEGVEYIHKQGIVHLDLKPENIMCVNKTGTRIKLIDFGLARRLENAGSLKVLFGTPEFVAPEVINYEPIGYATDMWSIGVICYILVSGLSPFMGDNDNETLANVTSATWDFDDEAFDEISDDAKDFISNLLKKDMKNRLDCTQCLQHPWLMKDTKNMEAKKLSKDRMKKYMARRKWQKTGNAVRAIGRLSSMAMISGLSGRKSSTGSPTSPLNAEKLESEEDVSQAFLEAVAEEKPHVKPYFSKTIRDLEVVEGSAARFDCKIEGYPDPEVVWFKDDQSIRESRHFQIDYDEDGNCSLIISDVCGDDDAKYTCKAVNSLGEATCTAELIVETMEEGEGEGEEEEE

SMILES: CCc1cc(-c2c[nH]c3ncc(-c4cnn(C5CCNCC5)c4)cc23)nc(N)n1
- Activity [1]: -71%
- Activity [2]: -49%
- Activity [3]: -58%
- Activity [4]: -47%
- Activity [5]: -91%
- Activity [6]: -78%
- Activity [7]: -40%
- Activity [8]: -34%
- Activity [9]: -97%
- Activity [10]: 6%
- Activity [11]: -16%
- Activity [12]: -19%

SMILES: CCCCc1cc(-c2c[nH]c3ncc(-c4cnn(C5CCNCC5)c4)cc23)nc(N)n1
- Activity [1]: -92%
- Activity [2]: -42%
- Activity [3]: -89%
- Activity [4]: -60%
- Activity [5]: -98%
- Activity [6]: -78%
- Activity [7]: -72%
- Activity [8]: -68%
- Activity [13]: -69%
- Activity [9]: -97%
- Activity [10]: -24%
- Activity [11]: -53%
- Activity [12]: -25%

SMILES: CCCCc1cc(-c2c[nH]c3ncccc23)nc(N)n1
- Activity [1]: -17%
- Activity [2]: -15%
- Activity [3]: 2%
- Activity [4]: 1%
- Activity [5]: -70%
- Activity [6]: -12%
- Activity [7]: -10%
- Activity [8]: 7%
- Activity [13]: -9%
- Activity [10]: -5%
- Activity [11]: 17%

SMILES: Nc1nccc(-c2c[nH]c3ncccc23)n1 [MERIOLIN 1]
- Activity [1]: -46%
- Activity [2]: -35%
- Activity [3]: -4%
- Activity [4]: -22%
- Activity [5]: -61%
- Activity [6]: -42%
- Activity [7]: -35%
- Activity [8]: -11%
- Activity [13]: 12%
- Activity [9]: -44%
- Activity [10]: 0%
- Activity [11]: 25%
- Activity [12]: 28%

— ChEMBL document CHEMBL3813616, “Discovery of novel 7-azaindoles as PDK1 inhibitors” (Bioorg Med Chem Lett, 2016)
